Experimental data: ChEMBL document CHEMBL4610012, “Identification of vibsanin A analog as a novel HSP90 inhibitor” (Bioorg Med Chem, 2020)
Calls of active or inactive are those of the source. The calls are words filed in the database; no cut-off is given here.

Columns and labels:
NEC8 = assay: Antiproliferative activity against human NEC8 cells assessed as reduction in cell viability incubated for 72 hrs by MTT assay; assay type: functional, cell-based; conditions: NEC8, 72 h
SK-MEL-28 = assay: Antiproliferative activity against human SK-MEL-28 cells assessed as reduction in cell viability incubated for 72 hrs by MTT assay; assay type: functional, cell-based; conditions: SK-MEL-28, 72 h
[1] = biological target: T1, Serine/threonine-protein kinase AKT (Homo sapiens) (UniProt P31751+Q9Y243+P31749); assay: Inhibition of Akt signaling pathway in human HT1080 cells assessed as fold change in phosphorylated Akt level at 10 uM incubated for 24 hrs by immunoblot assay (reference value: 1); assay type: cell-based; conditions: HT-1080
T1 sequence (P31749 whole entry, looked up): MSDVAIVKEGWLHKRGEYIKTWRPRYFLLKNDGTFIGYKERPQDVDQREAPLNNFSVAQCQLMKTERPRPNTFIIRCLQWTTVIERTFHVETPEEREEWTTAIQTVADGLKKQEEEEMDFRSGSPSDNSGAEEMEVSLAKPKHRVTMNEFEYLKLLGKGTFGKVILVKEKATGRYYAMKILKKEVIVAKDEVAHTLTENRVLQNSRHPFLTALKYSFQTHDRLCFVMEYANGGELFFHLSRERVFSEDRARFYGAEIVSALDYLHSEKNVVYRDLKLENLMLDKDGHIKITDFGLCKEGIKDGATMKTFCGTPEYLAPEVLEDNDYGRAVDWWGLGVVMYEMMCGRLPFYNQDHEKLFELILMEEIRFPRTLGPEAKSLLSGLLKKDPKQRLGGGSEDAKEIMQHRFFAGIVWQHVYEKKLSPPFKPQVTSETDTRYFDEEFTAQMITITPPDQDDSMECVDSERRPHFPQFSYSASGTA
T1 sequence (P31751 whole entry, looked up): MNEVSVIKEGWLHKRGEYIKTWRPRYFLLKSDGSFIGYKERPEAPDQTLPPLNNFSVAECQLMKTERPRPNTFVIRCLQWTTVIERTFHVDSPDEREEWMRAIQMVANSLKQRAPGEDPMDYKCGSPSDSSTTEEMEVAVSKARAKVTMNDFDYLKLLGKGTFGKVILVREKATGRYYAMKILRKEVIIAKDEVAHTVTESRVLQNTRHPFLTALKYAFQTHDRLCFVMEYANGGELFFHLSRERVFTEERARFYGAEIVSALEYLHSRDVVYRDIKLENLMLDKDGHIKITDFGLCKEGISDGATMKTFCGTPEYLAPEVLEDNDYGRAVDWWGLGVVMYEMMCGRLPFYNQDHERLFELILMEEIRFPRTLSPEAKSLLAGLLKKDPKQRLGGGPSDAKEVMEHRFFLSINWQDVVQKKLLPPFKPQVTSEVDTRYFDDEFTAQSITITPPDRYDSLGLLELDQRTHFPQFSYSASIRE
T1 sequence (Q9Y243 whole entry, looked up): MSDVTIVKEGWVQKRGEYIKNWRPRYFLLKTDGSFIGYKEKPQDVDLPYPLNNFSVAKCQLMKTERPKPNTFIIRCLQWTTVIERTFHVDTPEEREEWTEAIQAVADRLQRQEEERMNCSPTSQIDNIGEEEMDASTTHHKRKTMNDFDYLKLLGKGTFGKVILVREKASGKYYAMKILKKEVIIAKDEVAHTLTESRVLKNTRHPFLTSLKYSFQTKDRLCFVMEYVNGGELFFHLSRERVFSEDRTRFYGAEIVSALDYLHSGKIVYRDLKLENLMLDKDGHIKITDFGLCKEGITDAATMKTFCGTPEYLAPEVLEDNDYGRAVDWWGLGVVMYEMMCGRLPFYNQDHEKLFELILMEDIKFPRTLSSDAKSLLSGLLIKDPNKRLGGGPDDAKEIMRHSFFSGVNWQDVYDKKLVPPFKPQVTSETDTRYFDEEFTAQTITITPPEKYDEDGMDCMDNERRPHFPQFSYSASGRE

[2] = Antiproliferative activity against human ES2 cells assessed as reduction in cell viability incubated for 72 hrs by MTT assay; assay type: functional, cell-based; conditions: ES-2, 72 h
MCF7 [3] = assay: Antiproliferative activity against human MCF7 cells assessed as reduction in cell viability incubated for 72 hrs by MTT assay; assay type: functional, cell-based; conditions: MCF7, 72 h
A-431 = assay: Antiproliferative activity against human A431 cells assessed as reduction in cell viability incubated for 72 hrs by MTT assay; assay type: functional, cell-based; conditions: A-431, 72 h
PANC-1 = assay: Antiproliferative activity against human PANC1 cells assessed as reduction in cell viability incubated for 72 hrs by MTT assay; assay type: functional, cell-based; conditions: PANC-1, 72 h
HT-29 = assay: Antiproliferative activity against human HT-29 cells assessed as reduction in cell viability incubated for 72 hrs by MTT assay; assay type: functional, cell-based; conditions: HT-29, 72 h
PC-3 = assay: Antiproliferative activity against human PC3 cells assessed as reduction in cell viability incubated for 72 hrs by MTT assay; assay type: functional, cell-based; conditions: PC-3, 72 h
HT-1080 [4] = assay: Antiproliferative activity against human HT1080 cells assessed as reduction in cell viability incubated for 72 hrs by MTT assay; assay type: functional, cell-based; conditions: HT-1080, 72 h
[5] = biological target: T1, Serine/threonine-protein kinase AKT (Homo sapiens); assay: Inhibition of Akt signaling pathway in human HT1080 cells assessed as fold change in phosphorylated 70S6K level at 10 uM incubated for 24 hrs by immunoblot assay (reference value: 1); assay type: cell-based; conditions: HT-1080
HT-1080 [6] = assay: Induction of vacuole formation in human HT1080 cells at 10 uM incubated for 24 hrs; assay type: functional, cell-based
HT-1080 [7] = assay: Effect on Akt level in human HT1080 cells assessed as Akt level at 10 uM incubated for 24 hrs by immunoblot assay (reference value: 1); assay type: cell-based; conditions: ht-1080, 24 h
A549 = assay: Antiproliferative activity against human A549 cells assessed as reduction in cell viability incubated for 72 hrs by MTT assay; assay type: functional, cell-based; conditions: A549, 72 h
MCF7 [8] = assay: Effect on HER2 mRNA expression in human MCF7 cells at 10 uM incubated for 24 hrs by qRT-PCR analysis; assay type: functional, cell-based
[9] = biological target: T1, Serine/threonine-protein kinase AKT (Homo sapiens); assay: Inhibition of Akt signaling pathway in human HT1080 cells assessed as reduction in phosphorylated Akt level incubated for 12 hrs by immunoblot assay; assay type: cell-based; conditions: HT-1080
[10] = biological target: Heat shock protein HSP90 (Homo sapiens) (UniProt P07900+P08238); assay: Inhibition of HSP90 chaperone activity in human HeLa cells assessed as reduction in denatured luciferase refolding at 100 uM incubated for 60 mins by luciferase refolding assay; assay type: cell-based
[11] = biological target: T1, Serine/threonine-protein kinase AKT (Homo sapiens); assay: Inhibition of Akt signaling pathway in human HT1080 cells assessed as fold change in phosphorylated Akt level at 1 uM incubated for 12 hrs by immunoblot assay (reference value: 1); assay type: cell-based; conditions: HT-1080
[12] = biological target: T1, Serine/threonine-protein kinase AKT (Homo sapiens); assay: Inhibition of Akt signaling pathway in human HT1080 cells assessed as fold change in phosphorylated Akt level at 10 uM incubated for 12 hrs by immunoblot assay (reference value: 1); assay type: cell-based; conditions: HT-1080
[13] = biological target: T1, Serine/threonine-protein kinase AKT (Homo sapiens); assay: Inhibition of Akt signaling pathway in human HT1080 cells assessed as fold change in phosphorylated Akt level at 0.1 uM incubated for 12 hrs by immunoblot assay (reference value: 1); assay type: cell-based; conditions: HT-1080
[14] = biological target: Luciferin 4-monooxygenase (Photinus pyralis) (UniProt P08659); assay: Effect on firefly luciferase activity at 100 uM incubated for 60 mins by luciferase assay system
Luciferin 4-monooxygenase (Photinus pyralis), sequence (P08659 whole entry): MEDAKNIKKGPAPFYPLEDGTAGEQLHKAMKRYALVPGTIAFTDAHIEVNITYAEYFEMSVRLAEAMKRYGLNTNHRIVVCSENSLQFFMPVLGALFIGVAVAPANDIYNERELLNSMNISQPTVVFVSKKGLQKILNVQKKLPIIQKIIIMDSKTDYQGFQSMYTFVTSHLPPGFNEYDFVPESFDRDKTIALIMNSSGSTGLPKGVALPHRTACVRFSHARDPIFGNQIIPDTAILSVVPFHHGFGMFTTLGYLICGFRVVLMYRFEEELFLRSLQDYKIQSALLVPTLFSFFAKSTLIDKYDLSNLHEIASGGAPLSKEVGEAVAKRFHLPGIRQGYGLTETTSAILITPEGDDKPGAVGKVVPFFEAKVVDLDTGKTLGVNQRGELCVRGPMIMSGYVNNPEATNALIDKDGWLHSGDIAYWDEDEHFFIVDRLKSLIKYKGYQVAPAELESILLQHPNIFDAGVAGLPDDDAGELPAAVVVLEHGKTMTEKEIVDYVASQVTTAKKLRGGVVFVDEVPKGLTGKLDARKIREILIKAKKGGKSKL

[15] = biological target: Receptor tyrosine-protein kinase erbB-2 (Homo sapiens) (UniProt P04626); assay: Induction of HER2 destabilization in human MCF7 cells assessed as half life at 10 uM measured up to 24 hrs by immunoblotting assay (Rvb > 24 hrs); assay type: cell-based
Receptor tyrosine-protein kinase erbB-2 (Homo sapiens), sequence (P04626 whole entry): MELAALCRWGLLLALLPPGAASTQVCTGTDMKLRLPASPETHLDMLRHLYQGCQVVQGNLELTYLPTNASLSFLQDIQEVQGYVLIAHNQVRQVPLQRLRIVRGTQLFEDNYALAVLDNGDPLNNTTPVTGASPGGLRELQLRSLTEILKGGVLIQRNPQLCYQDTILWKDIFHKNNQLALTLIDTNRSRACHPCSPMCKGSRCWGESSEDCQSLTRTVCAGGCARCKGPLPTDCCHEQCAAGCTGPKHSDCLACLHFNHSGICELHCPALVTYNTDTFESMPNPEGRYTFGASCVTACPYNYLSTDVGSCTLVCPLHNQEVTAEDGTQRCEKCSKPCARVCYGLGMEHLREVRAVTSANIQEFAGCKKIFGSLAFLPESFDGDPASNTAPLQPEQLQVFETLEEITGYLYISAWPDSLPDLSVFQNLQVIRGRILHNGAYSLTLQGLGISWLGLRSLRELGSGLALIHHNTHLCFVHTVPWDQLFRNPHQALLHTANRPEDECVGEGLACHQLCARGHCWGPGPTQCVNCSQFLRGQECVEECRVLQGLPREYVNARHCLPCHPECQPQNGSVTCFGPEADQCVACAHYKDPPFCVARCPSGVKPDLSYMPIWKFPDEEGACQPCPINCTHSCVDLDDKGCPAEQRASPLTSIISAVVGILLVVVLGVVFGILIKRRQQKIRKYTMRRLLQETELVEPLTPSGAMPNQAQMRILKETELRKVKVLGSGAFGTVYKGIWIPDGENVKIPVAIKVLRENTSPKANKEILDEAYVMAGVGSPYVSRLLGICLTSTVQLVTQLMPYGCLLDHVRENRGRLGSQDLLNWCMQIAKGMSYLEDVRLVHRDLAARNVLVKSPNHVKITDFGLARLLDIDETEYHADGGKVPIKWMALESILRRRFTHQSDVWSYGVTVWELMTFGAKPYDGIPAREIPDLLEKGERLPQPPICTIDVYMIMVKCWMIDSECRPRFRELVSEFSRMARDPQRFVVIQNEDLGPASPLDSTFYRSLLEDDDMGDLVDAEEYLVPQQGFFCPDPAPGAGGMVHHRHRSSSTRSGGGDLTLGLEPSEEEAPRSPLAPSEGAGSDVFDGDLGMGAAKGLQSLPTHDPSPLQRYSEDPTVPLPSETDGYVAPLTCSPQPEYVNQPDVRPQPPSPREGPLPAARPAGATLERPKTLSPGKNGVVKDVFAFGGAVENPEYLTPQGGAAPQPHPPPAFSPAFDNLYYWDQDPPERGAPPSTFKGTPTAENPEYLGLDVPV

MCF7 [16] = assay: Effect on HSP90 level in human MCF7 cells at 10 uM incubated for 24 hrs by immunoblotting assay (reference value: 1); assay type: ADME, cell-based; conditions: mcf7, 24 h
[17] = biological target: T1, Serine/threonine-protein kinase AKT (Homo sapiens); assay: Inhibition of Akt signaling pathway in human HT1080 cells assessed as fold change in phosphorylated Akt level at 0.01 uM incubated for 12 hrs by immunoblot assay (reference value: 1); assay type: cell-based; conditions: HT-1080

Structure (SMILES) | IC50 (NEC8) [µM] | IC50 (SK-MEL-28) [µM] | fold change (FC) [1] | IC50 [2] [µM] | IC50 (MCF7 [3]) [µM] | IC50 (A-431) [µM] | IC50 (PANC-1) [µM] | IC50 (HT-29) [µM] | IC50 (PC-3) [µM] | IC50 (HT-1080 [4]) [µM] | fold change (FC) [5] | Activity (HT-1080 [6]) | fold change (FC) (HT-1080 [7]) | IC50 (A549) [µM] | Activity (MCF7 [8]) | fold change (FC) (MCF7 [16]) | further results
C=C1CC[C@H]2O[C@@]2(C)[C@H](OC(=O)C=C(C)C)/C=C/[C@@](C)(CCC=C(C)C)C[C@H]1O | 11 | > 20 | 0.95 | > 20 | > 20 | > 20 | > 20 | > 20 | > 20 | > 20 | 1.1 | inactive | 0.98 | > 20 | – | – | –
C=C1CC[C@H]2O[C@@]2(C)[C@H](OC(=O)C=C(C)C)/C=C/[C@@](C)(CCC=C(C)C)CC1=O | 3 | 0.97 | 0.11 | 4.3 | 3.5 | 0.89 | 3.5 | 2 | 4.3 | 1.2 | 0.08 | Active | 0.8 | 4.4 | inactive | 0.98 | inhibition [9]: Dose-dependent effect; inhibition [10]: Active; fold change (FC) [11]: 0.63; fold change (FC) [12]: 0.38; fold change (FC) [13]: 0.8; Activity [14]: inactive; T1/2 [15]: 15 h; fold change (FC) [17]: 0.99
CC(C)=CCC[C@]1(C)/C=C/[C@@H](OC(=O)C=C(C)C)[C@]2(C)O[C@@H]2CC/C(CO)=C\C1 | 8.4 | > 20 | 0.98 | 2.9 | 15 | 16 | 0.025 | 6.8 | > 20 | > 20 | 1.2 | inactive | 1.08 | 8.3 | – | – | –
C=C(I)CC[C@H]1O[C@@]1(C)[C@@H](/C=C/[C@](C)(CC=O)CCC=C(C)C)OC(=O)C=C(C)C | 11 | > 20 | 0.91 | > 20 | > 20 | 20 | 5.1 | > 20 | > 20 | 18 | 1.15 | inactive | 0.92 | > 20 | – | – | –
CC(C)=CCC[C@]1(C)/C=C/[C@@H](OC(=O)C=C(C)C)[C@]2(C)O[C@@H]2CC/C(C=O)=C\C1 | 12 | > 20 | 1.05 | 7.5 | 12 | 13 | 2.7 | 7.8 | > 20 | 18 | 1.11 | inactive | 0.85 | 11 | – | – | –
COC1=C2C[C@@H](C)C[C@H](OC)[C@H](O)[C@@H](C)/C=C(\C)[C@H](OC(N)=O)[C@@H](OC)/C=C\C=C(/C)C(=O)NC(=CC1=O)C2=O [GELDANAMYCIN] | – | – | – | – | – | – | – | – | – | – | – | – | – | – | inactive | 1.01 | –
